US12264173B2 (GILEAD SCIENCES, INC., priority 2020, dated 2025)
pEC50: −log10 of the molar value. Where two headings read alike, the source gives them in different places.

Legend:
RSV strain A2 = assay: microbe, parasite or virus in culture; assay type: cell-based; details: read-out: RSV HEp-2 EC50
Method: Antiviral activity against RSV is determined using an infectious cytopathic cell protection assay in HEp-2 cells. In this assay, compounds inhibiting viral infection and/or replication produce a cytoprotective effect against the virus-induced cell killing that can be quantified using a cell viability reagent. The techniques used here are novel adaptations of methods described in published literature (Chapman et al., Antimicrob Agents Chemother. 2007, 51(9):3346-53.).
HEp-2 cells are obtained from ATCC (Manassas, VI) and maintained in MEM media supplemented with 10% fetal bovine serum and penicillin/streptomycin. Cells are passaged twice a week and kept at subconfluent stage. Commercial stock of RSV strain A2 (Advanced Biotechnologies, Columbia, MD) is titered before compound testing to determine the appropriate dilution of the virus stock that generates desirable cytopathic effect in HEp-2 cells.
For antiviral tests, HEp-2 cells are grown in large cell culture flasks to near confluency but not fully so. The compounds to be tested are prediluted in DMSO in 384-well compound dilution plates, either in an 8 or 40 sample per plate standardized dose response format. 3-fold serial dilution increments of each test compound are prepared in the plates and test samples are transferred via acoustic transfer apparatus (Echo, Labcyte) at 100 nL per well into cell culture assay 384-well plates. Each compound dilution is transferred in single or quadruplicate samples into dry assay plates, which are stored until assay is ready to go. The positive and negative controls are laid out in opposite on ends of the plate in vertical blocks (1 column).
Subsequently, an infectious mixture is prepared using an appropriate dilution of virus stock previously determined by titration with cells at a density of 50,000/mL and 20 µL/well is added to test plates w/compounds via automation (uFlow, Biotek). Each plate includes negative and positive controls (16 replicates each) to create 0% and 100% virus inhibition standards, respectively. Following the infection with RSV, testing plates are incubated for 4 days in a 37° C. cell culture incubator. After the incubation, a cell viability reagent, Cell TiterGlo (Promega, Madison, WI) is added to the assay plates, which are incubated briefly, and a luminescent readout is measured (Envision, Perkin Elmer) in all the assay plates. The RSV-induced cytopathic effect, percentage inhibition, is determined from the levels of remaining cell viability. […] Various potent anti-RSV tool compounds are used as positive controls for antiviral activity.

RSV A2 = assay: RSV NHBE EC50 (RSV A2 antiviral assay in NHBE cells); assay type: cell-based; details: read-out: RSV NHBE EC50
Method: Normal human bronchial epithelial (NHBE) cells were purchased from Lonza (Walkersville, MD, Cat #CC-2540) and cultured in Bronchial Epithelial Growth Media (BEGM) (Lonza, Walkersville, MD, Cat #CC-3170). The cells were passaged 1-2 times per week to maintain <80% confluency. The NHBE cells were discarded after 6 passages in culture.
To conduct the RSV A2 antiviral assay, NHBE cells were plated in 96-well plates at a density of 7,500 cells per well in BEGM and allowed to attach overnight at 37° C. Following attachment, 100 μL of cell culture media was removed and 3-fold serially diluted compound was added using a Hewlett-Packard D300 Digital Dispenser. The final concentration of DMSO was normalized to 0.05%. Following compound addition, the NHBE cells were infected by the addition of 100 μL of RSV A2 at a titer of 1×10^4.5 tissue culture infectious doses/mL in BEGM and then incubated at 37° C. for 4 days. The NHBE cells were then allowed to equilibrate to 25° C. and cell viability was determined by removing 100 μL of culture medium and adding 100 μL of Cell-Titer Glo viability reagent. The mixtures were incubated for 10 minutes at 25° C., and the luminescence signal was quantified on an Envision luminescence plate reader.

[1] = human respiratory syncytial virus, HEp-2, 96 h, Table 3, HEp-2 cells, RSV A2, 4 days
[2] = human respiratory syncytial virus, NHBE, 96 h, Table 3, NHBE cells, RSV A2, 4 days
[3] = Table 3, HEp-2 cells, RSV A2, 4 days
[4] = Table 3, NHBE cells, RSV A2, 4 days

| SMILES | pEC50 (RSV strain A2; [1]) | pEC50 (RSV A2; [2]) | also measured |
| --- | --- | --- | --- |
| CCC(=O)OC1[C@H](c2ccc3c(N)ncnn23)O[C@](C#N)(COP(=O)(N[C@@H](C)C(=O)OCC2CC2)Oc2ccccc2)[C@H]1OC(=O)CC (stereo in doubt) [Example 98, (2R,3S,4R,5S)-5-(4-aminopyrrolo[2,1-f][1,2,4]triazin-7-yl)-2-cyano-2-((((((S)-1-(cyclopropylmethoxy)-1-oxopropan-2-yl)amino)(phenoxy)phosphoryl)oxy)methyl) tetrahydrofuran-3,4-diyl dipropionate] | 7.32 | 7.77 |  |
| CC(C)C(=O)OC1C(c2ccc3c(N)ncnn23)OC(C#N)(COP(=O)(NC(C)C(=O)OC2CCN(C)C2)Oc2ccccc2)C1OC(=O)C(C)C (single isomer, unassigned) [Example 233] |  |  | pEC50 (RSV strain A2; [3]): 6.90; pEC50 (RSV A2; [4]): 7.54 |
| COC(=O)[C@H](C)NP(=S)(OC[C@@]1(C#N)O[C@@H](c2ccc3c(N)ncnn23)[C@H](OC(=O)C(C)C)[C@@H]1OC(=O)C(C)C)Oc1ccccc1 (stereo partly drawn) [Example 250, (2R,3S,4S,5S)-5-(4-aminopyrrolo[2,1-f][1,2,4]triazin-7-yl)-2-cyano-2-((((((S)-1-methoxy-1-oxopropan-2-yl)amino)(phenoxy)phosphorothioyl)oxy)methyl) tetrahydrofuran-3,4-diyl bis(2-methylpropanoate)] |  |  | pEC50 (RSV strain A2; human respiratory syncytial virus, HEp-2, 96 h): 5.41; pEC50 (RSV A2; human respiratory syncytial virus, NHBE, 96 h): 5.62 |
| COC(=O)[C@H](C)NP(=O)(OC[C@@]1(C#N)O[C@@H](c2ccc3c(N)ncnn23)[C@H](OC(=O)C(C)C)[C@@H]1OC(=O)C(C)C)Oc1ccc(C[C@H](N)C(=O)OC(C)C)cc1 (stereo partly drawn) [Example 251, (2R,3S,4S,5S)-2-((((4-((S)-2-amino-3-isopropoxy-3-oxopropyl)phenoxy)(((S)-1-methoxy-1-oxopropan-2-yl)amino)phosphoryl)oxy)methyl)-5-(4-aminopyrrolo[2,1-f][1,2,4]triazin-7-yl)-2-cyanotetrahydrofuran-3,4-diyl bis(2-methylpropanoate)] | 6.73 | 7.43 |  |
| CCOC(=O)[C@H](C)NP(=O)(N[C@@H](C)C(=O)OCC)OC[C@@]1(C#N)O[C@@H](c2ccc3c(NC(=O)C(C)C)ncnn23)[C@H](OC(=O)C(C)C)[C@@H]1OC(=O)C(C)C [Example 145, ((2R,3S,4R,5S)-5-(4-isobutyramidopyrrolo[2,1-f][1,2,4]triazin-7-yl)-2-cyano-3,4-diisobutylatetetrahydrofuran-2-yl)methyl bis-ethyl L-alaninate phosphate] |  | 7.40 |  |
| CC(C)C(=O)O[C@H]1[C@H](c2ccc3c(N)ncnn23)O[C@](C#N)(COP(=O)(N[C@@H](C)C(=O)O[C@@H]2CCOC2)Oc2ccccc2)[C@H]1OC(=O)C(C)C (single isomer, unassigned) [Example 243] |  | 7.96 | pEC50 (RSV strain A2; [3]): 7.82 |
| CCOC(=O)[C@H](C)N[P@@](=O)(OC[C@@]1(C#N)O[C@@H](c2ccc3c(N)ncnn23)[C@H](OC(=O)C(C)C)[C@@H]1OC(=O)C(C)C)Oc1ccccc1 (single isomer, unassigned) [Example 249] | 7.33 | 7.62 |  |
| CCOCCOCCOC(=O)[C@H](C)NP(=O)(OC[C@@]1(C#N)O[C@@H](c2ccc3c(N)ncnn23)[C@H](OC(=O)C(C)C)[C@@H]1OC(=O)C(C)C)Oc1ccccc1 (single isomer, unassigned) [Example 263] | 7.64 |  |  |
| CCOC(=O)[C@H](C)NP(=O)(OC[C@@]1(C#N)O[C@@H](c2ccc3c(N)ncnn23)[C@H](OC(=O)C(C)C)[C@@H]1OC(=O)C(C)C)Oc1ccccc1 (mixture of isomers) [Example 248, (2R,3S,4S,5S)-5-(4-aminopyrrolo[2,1-f][1,2,4]triazin-7-yl)-2-cyano-2-((((((S)-1-ethoxy-1-oxopropan-2-yl)amino)(phenoxy)phosphoryl)oxy)methyl)tetrahydrofuran-3,4-diyl bis(2-methylpropanoate)] | 7.64 |  |  |
| CCCCOC(=O)C(C)NP(=O)(OCC1(C#N)OC(c2ccc3c(N)ncnn23)C(OC(=O)C(C)C)C1OC(=O)C(C)C)Oc1ccccc1 (single isomer, unassigned) [Example 227] |  |  | pEC50 (RSV strain A2; [3]): 7.77; pEC50 (RSV A2; [4]): 7.92 |
| CCCCOC(=O)C(C)NP(=O)(OCC1(C#N)OC(c2ccc3c(N)ncnn23)C(OC(=O)C(C)C)C1OC(=O)C(C)C)Oc1ccccc1 (single isomer, unassigned) [Example 226] |  |  | pEC50 (RSV strain A2; [3]): 8.05; pEC50 (RSV A2; [4]): 8.05 |
| COC(=O)[C@H](C)NP(=O)(O)OC[C@@]1(C#N)O[C@@H](c2ccc3c(N)ncnn23)[C@H](OC(=O)C(C)C)[C@@H]1OC(=O)C(C)C [Example 242, ((2R,3S,4S,5S)-5-(4-aminopyrrolo[2,1-f][1,2,4]triazin-7-yl)-2-cyano-3,4-bis(isobutyryloxy)tetrahydrofuran-2-yl)methyl ((S)-1-methoxy-1-oxopropan-2-yl)phosphoramidate] | 5.14 | < 5.30 |  |
| CC(C)C(=O)O[C@H]1[C@H](c2ccc3c(N)ncnn23)O[C@](C#N)(COP(=O)(N[C@@H](C)C(=O)OCC(C)(C)O)Oc2ccccc2)[C@H]1OC(=O)C(C)C (stereo partly drawn) [Example 256, (2R,3S,4S,5S)-5-(4-aminopyrrolo[2,1-f][1,2,4]triazin-7-yl)-2-cyano-2-((((((S)-1-(2-hydroxy-2-methylpropoxy)-1-oxopropan-2-yl)amino)(phenoxy)phosphoryl)oxy)methyl)tetrahydrofuran-3,4-diyl bis(2-methylpropanoate)] |  | 7.70 |  |
| CC(C)C(=O)O[C@H]1[C@H](c2ccc3c(N)ncnn23)O[C@](C#N)(COP(=O)(N[C@@H](C)C(=O)OCC(C)(C)OP(=O)(O)O)Oc2ccccc2)[C@H]1OC(=O)C(C)C (stereo partly drawn) [Example 262, (2R,3S,4S,5S)-5-(4-aminopyrrolo[2,1-f][1,2,4]triazin-7-yl)-2-cyano-2-((((((S)-1-(2-methyl-2-(phosphonooxy)propoxy)-1-oxopropan-2-yl)amino)(phenoxy)phosphoryl)oxy)methyl)tetrahydrofuran-3,4-diyl bis(2-methylpropanoate)] | 6.79 |  |  |
| CC(C)C(=O)O[C@H]1[C@H](c2ccc3c(N)ncnn23)O[C@](C#N)(COP(=O)(N[C@@H](C)C(=O)O[C@@H]2CCOC2)Oc2ccccc2)[C@H]1OC(=O)C(C)C (single isomer, unassigned) [Example 244] |  |  | pEC50 (RSV strain A2; [3]): 7.20; pEC50 (RSV A2; [4]): 7.68 |
| CC(=O)O[C@H]1[C@H](c2ccc3c(N)ncnn23)O[C@](C#N)(CO[P@@](=O)(N[C@@H](C)C(=O)OC2CCCCC2)Oc2ccccc2)[C@H]1OC(C)=O [Example 81, (2R,3S,4S,5S)-5-(4-aminopyrrolo[2,1-f][1,2,4]triazin-7-yl)-2-cyano-2-((((S)-(((S)-1-(cyclohexyloxy)-1-oxopropan-2-yl)amino)(phenoxy)phosphoryl)oxy)methyl) tetrahydrofuran-3,4-diyl diacetate] | 6.71 | 7.66 |  |
| CCCCOC(=O)[C@H](C)NP(=O)(OC[C@@]1(C#N)O[C@@H](c2ccc3c(N)ncnn23)[C@H](OC(=O)C(C)C)[C@@H]1OC(=O)C(C)C)Oc1ccccc1 (mixture of isomers) [Example 225, (2R,3S,4S,5S)-5-(4-aminopyrrolo[2,1-f][1,2,4]triazin-7-yl)-2-((((((S)-1-butoxy-1-oxopropan-2-yl)amino)(phenoxy)phosphoryl)oxy)methyl)-2-cyanotetrahydrofuran-3,4-diyl bis(2-methylpropanoate)] |  | 7.85 |  |
